Laboratory results taken from patent US20260315431A1, “NANOMATERIAL ENCAPSULATED BIOFILM INHIBITORS FOR DENTAL CARIES TREATMENT” (THE UAB RESEARCH FOUNDATION, priority 2023, published 2026).
“Also recorded” adds a separate entry of the source.

Assays:
S. mutans UA159 biofilms = test: Fluorescence microscopy of S. mutans UA159 biofilms (Syto-9, Cascade Blue-dextran, propidium iodide); assay type: cell-based, Streptococcus mutans; conditions: 16 h
Description: FIGS. 1.6A-E illustrate the biofilm inhibitory activities of compound HA5. FIG. 1.6A illustrates that S. mutans UA159 were co-incubated with HA5 at various concentrations and biofilm formation was measured at OD562 using the crystal violet protocol. FIG. 1.6B illustrates Gtfs precipitated from S. mutans culture were co-incubated with HA5 at various concentrations and the glucan production was quantified using cascade blue staining and subsequent image processing with ImageJ. FIG. 1.6C illustrates representative fluorescence microscopy images of UA159 biofilms after 16 h of treatment with various concentrations of HA5. Bacterial cells were stained with Syto-9 (green, panel I); glucans were stained with Cascade Blue-dextran conjugated dye (blue, panel II); eDNA was stained with propidium iodide (red, panel III) and a merged image of all three staining images (panel IV). FIG. 1.6D illustrates S. mutans UA159, S. gordonii DL1 and S. sanguinis SK36 were co-incubated with HA5 at 50 μM and 100 μM and their growth were measured at OD470. FIG. 1.6E illustrates the chemical structure of HA5. Each of the biofilm, glucan and growth assays were conducted in triplicate and statistical significance was tested with one-way ANOVA. p<0.0001. […]
HA5 inhibits S. mutans UA159 biofilms, glucan production and eDNA levels. The antibiofilm activities of HA5 were further investigated by fluorescence microscopy imaging. […] In addition, propidium iodide was used to determine the presence of extracellular DNA (eDNA) in S. mutans biofilms. […] These findings reaffirm that HA5 inhibited S. mutans biofilms by preventing the synthesis of glucans and minimizing the presence of eDNA, two integral biofilm matrix elements crucial for S. mutans biofilm formation.
In addition, propidium iodide was used to determine the presence of extracellular DNA (eDNA) in S. mutans biofilms. […] These findings reaffirm that compound HA6 inhibited S. mutans biofilms by preventing the synthesis of glucans and minimizing the presence of eDNA, two integral biofilm matrix elements crucial for S. mutans biofilm formation.
Prior to in vivo evaluations, the biofilm inhibitory activities of PEHA5 were investigated. […] In addition, propidium iodide was used to determine the presence of eDNA in S. mutans biofilms. […] The effects of unloaded polymersome vesicles on S. mutans biofilm were compared with the control (1% DMSO) and the biofilm inhibitory activities of PEHA5 and HA5 at a single dose 50 μM concentration. […] In addition, the effect of PEHA5 on the planktonic growth of two commensal Streptococci, S. gordonii and S. Sanguinis were compared with the control (1% DMSO) and HA5 at a single treatment dose of 50 μM.
The biofilm inhibitory activities of PEHA6 were investigated. […] In addition, propidium iodide was used to determine the presence of eDNA in S. mutans biofilms. […] The effects of PEHA6 on S. mutans biofilm were compared with the control (1% DMSO) and the biofilm inhibitory activities of HA5 and HA6 side by side at a single dose, 50 μM concentration. […] In addition, the effect of PEHA6 on the planktonic growth of S. mutans was compared with HA5, HA6 at 50 μM.

S. mutans UA159 = test: Planktonic growth, S. mutans UA159 (OD470); assay type: cell-based, Streptococcus mutans
Description: The bacterial strains, S. mutans UA159, S. gordonii DL1, and S. sanguinis SK36 were inoculated statically at 37° C. under 5% CO2 in Todd Hewitt Broth (THB) for 24 h. The cultures were then diluted with fresh THB (1:5) and reinoculated until optical density at 470 nm (OD470) reached 1. The optical density was read using BioTek 800TS microplate reader at 470 nm for bacterial growth and 562 nm for biofilm stained with crystal violet. Data was plotted in Graphpad Prism9.
(§1) S. mutans, S. gordonii, and S. sanguinis growth assays. Effects of compounds on S. mutans and commensal bacterial growth were evaluated using the growth assay as described^69. S. mutans UA159, S. gordonii DL1, S. sanguinis SK36, cultures were grown for 24 h under 5% CO2 at 37° C. These cultures were then reinoculated with fresh THB (1:5) until OD470=1 when the bacteria were ready to be used. Different concentrations of the inhibitor were assayed in chemically defined media (CDM) with 1% of the bacteria, 1% sucrose and 1% DMSO in 96 well plates. The 96 well plates were incubated under 5% CO2 at 37° C. for 16 h. Growth of the bacteria was read after 16 h at OD470. Each assay was carried out at least in triplicate.
All bacterial strains (S. mutans UA159, S. gordonii DL1, and S. sanguinis SK36) were inoculated statically at 37° C. under 5% CO2 environment in Todd Hewitt Broth (THB) for 24 h^[61]. The cultures were then diluted with fresh THB (1:5) and reinoculated until the optical density at 470 nm reaches 1. The optical density was read using BioTek 800 TS absorbance reader at 470 nm for bacterial growth and 562 nm for biofilm stained with crystal violet. Data was plotted in Prism 10.0.2.
as §1, with “Effects” for “S. mutans, S. gordonii, and S. sanguinis growth assays. Effects”, “PEHA5, PEHA6, HA5 or HA6” for “compounds”, “described^[62].” for “described^69.”, “PEHA5, PEHA6, HA5 or HA6” for “inhibitor”, “CDM” for “chemically defined media (CDM)”

## O=C1/C(=C/c2cc(O)c(O)cc2O)Oc2ccccc21 [HA5, 2-[(2′,4′,5′-Trihydroxyphenyl)methylidene]-2,3-dihydro-1-benzofuran-3-one]
S. mutans UA159 biofilms; 5 μM
  Syto-9 stained bacterial cells within biofilms: significant reduction in biofilms
  eDNA (propidium iodide): noticeable reduction of eDNA
  glucans (Cascade Blue-dextran): significantly reduced
S. mutans UA159 biofilms; 50 μM
  Syto-9 stained bacterial cells within biofilms: complete inhibition
  eDNA (propidium iodide): almost complete absence of eDNA
  glucans (Cascade Blue-dextran): no glucan formation was evident
S. mutans UA159; 25 μM
  planktonic growth of S. mutans: did not affect the planktonic growth
S. mutans UA159; 50 μM
  planktonic growth of S. mutans: did not inhibit the planktonic growth; also recorded: no effect on growth; also recorded: did not inhibit the growth significantly
S. mutans UA159; 50 μM and 100 μM
  growth of S. mutans: did not inhibit S. mutans growth

## O=C1/C(=C/c2cc(O)c(O)c(O)c2)Oc2ccccc21 [HA6, 2-[(3′,4′,5′-Trihydroxyphenyl)methylidene]-2,3-dihydro-1-benzofuran-3-one]
S. mutans UA159 biofilms; 15 μM
  Syto-9 stained bacterial cells within biofilms: significant reduction in biofilms
  eDNA (propidium iodide): noticeable reduction of eDNA
  glucans (Cascade Blue-dextran): significantly reduced
S. mutans UA159 biofilms; 30 μM
  Syto-9 stained bacterial cells within biofilms: complete inhibition
  eDNA (propidium iodide): almost complete absence of eDNA
  glucans (Cascade Blue-dextran): no glucan formation was evident
S. mutans UA159; 25 μM and 50 μM
  viability of S. mutans: did not inhibit S. mutans viability
S. mutans UA159; 50 μM
  planktonic growth of S. mutans: did not inhibit the planktonic growth; also recorded: no effect on growth; also recorded: inhibited the planktonic growth slightly
